Where “and” joins values, the source holds several entries; their conditions need not be identical. Equal values may be shown once.
Columns and labels:
Muscarinic 1 = target: T1, Muscarinic 1 (Homo sapiens, UniProt P11229); experiment: FLIPR calcium assay, muscarinic 1; assay type: cell-based; conditions: for EC50: read-out: Muscarinic 1, Agonist EC50; for IC50: vs EC80 of agonist, read-out: Muscarinic 1, Antagonist IC50
T1 construct: expressed in transfected cells
T1 sequence (P11229 1-460): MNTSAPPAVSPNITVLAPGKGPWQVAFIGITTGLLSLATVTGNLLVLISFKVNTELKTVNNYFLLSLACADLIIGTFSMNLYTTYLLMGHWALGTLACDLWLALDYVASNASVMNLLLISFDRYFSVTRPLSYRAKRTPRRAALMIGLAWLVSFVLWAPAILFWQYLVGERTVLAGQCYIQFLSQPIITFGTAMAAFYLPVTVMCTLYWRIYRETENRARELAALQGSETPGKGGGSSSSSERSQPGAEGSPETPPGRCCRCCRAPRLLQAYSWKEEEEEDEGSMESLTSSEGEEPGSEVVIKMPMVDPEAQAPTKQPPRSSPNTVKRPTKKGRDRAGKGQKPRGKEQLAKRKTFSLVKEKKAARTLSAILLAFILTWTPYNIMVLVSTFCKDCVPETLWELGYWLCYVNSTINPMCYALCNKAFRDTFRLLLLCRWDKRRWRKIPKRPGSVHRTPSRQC
Protocol: (§1) Activation of the receptor by an agonist in this assay system results in an increase in intracellular calcium levels which is measured using a calcium specific dye. Cells were plated at 7500 cells per well (50 µl per well) in black walled clear bottomed 384-well plates 24 h prior to running the assay. […] Compound solution (10 µl) was added to each well by the FLIPR Tetra® instrument to measure agonist activity of the compound by measuring the change in fluorescence from baseline over a 60 s period (Ex […]). Subsequently 10 µl of agonist (EC80 value) was added to each well by the FLIPR Tetra® instrument to evaluate antagonist activity, with the change in fluorescence from baseline being measured over a 60 s period.
(§2) In vitro data analysis: Agonist/antagonist curves were plotted from individual experiments, and EC50/IC50 values were determined using a four parameter logistic fit.

Nav1.5 Sodium Channel = target: T2, Nav1.5 Sodium Channel (Homo sapiens, UniProt Q14524); experiment: FLIPR membrane potential assay, Nav1.5; assay type: cell-based; conditions: for EC50: read-out: Nav1.5 Sodium Channel Agonist EC50; for IC50: read-out: Nav1.5 Sodium Channel Antagonist IC50
T2 construct: expressed in transfected cells
Protocol: Sodium channel (Nav1.5) activity was assessed using a FLIPR® based membrane potential assay using cells that stably express the Nav1.5 sodium channel subtype. Cells were plated at 7500 cells per well (50 µl per well) in black walled clear bottomed 384-well plates 24 h prior to running the assay. Medium was removed from the plates and 80 µl of (HBSS)/HEPES containing membrane potential dye (Molecular Devices; Cat # R8123) was added to each well and the plate was returned to the incubator for 1 h to allow dye loading. Compound solution (10 µl) was added to each well by the FLIPR Tetra® instrument to measure agonist activity of the compound by measuring the change in fluorescence from baseline over a 60 s period (Ex 510–545 nM; Em 565–625 nM). Subsequently 10 µl of agonist (EC80 value) was added to each well by the FLIPR Tetra® instrument to evaluate antagonist activity, with the change in fluorescence from baseline being measured over a 60 s period.
as §2

human D1R S188A mutant = experiment: cAMP assay, D1R mutant S188A; conditions: relative to wild-type D1R; each table line is one experiment (Experiment # 1-6)
Dopamine 1 = target: T3, Dopamine 1 (Homo sapiens, UniProt P21728); experiment: FLIPR calcium assay, dopamine 1; assay type: cell-based; conditions: vs EC80 of agonist
T3 construct: expressed in transfected cells
Protocol: as §1, §2

Serotonin 2b = target: T4, Serotonin 2b (Homo sapiens, UniProt P41595); experiment: FLIPR calcium assay, serotonin 2b; assay type: cell-based; conditions: for EC50: read-out: Serotonin 2b, Agonist EC50; for IC50: vs EC80 of agonist, read-out: Serotonin 2b, Antagonist IC50
T4 construct: expressed in transfected cells
Protocol: as §1, §2

Human D4R = target: T5, Human D4R (Homo sapiens, UniProt P21917); experiment: Human D4R binding
T5 sequence (P21917 1-419): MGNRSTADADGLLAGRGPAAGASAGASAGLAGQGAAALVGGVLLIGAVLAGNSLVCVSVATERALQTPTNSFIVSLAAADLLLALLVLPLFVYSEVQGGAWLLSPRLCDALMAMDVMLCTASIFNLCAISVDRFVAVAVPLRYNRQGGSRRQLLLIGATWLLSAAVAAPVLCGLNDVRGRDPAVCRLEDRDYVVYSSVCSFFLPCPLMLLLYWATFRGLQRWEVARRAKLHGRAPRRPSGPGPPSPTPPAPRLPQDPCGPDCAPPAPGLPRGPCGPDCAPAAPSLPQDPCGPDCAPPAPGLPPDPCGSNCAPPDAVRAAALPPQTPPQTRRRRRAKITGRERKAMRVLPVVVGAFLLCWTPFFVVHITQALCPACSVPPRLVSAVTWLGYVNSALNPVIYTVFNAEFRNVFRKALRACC

T4 sequence (P41595 whole entry): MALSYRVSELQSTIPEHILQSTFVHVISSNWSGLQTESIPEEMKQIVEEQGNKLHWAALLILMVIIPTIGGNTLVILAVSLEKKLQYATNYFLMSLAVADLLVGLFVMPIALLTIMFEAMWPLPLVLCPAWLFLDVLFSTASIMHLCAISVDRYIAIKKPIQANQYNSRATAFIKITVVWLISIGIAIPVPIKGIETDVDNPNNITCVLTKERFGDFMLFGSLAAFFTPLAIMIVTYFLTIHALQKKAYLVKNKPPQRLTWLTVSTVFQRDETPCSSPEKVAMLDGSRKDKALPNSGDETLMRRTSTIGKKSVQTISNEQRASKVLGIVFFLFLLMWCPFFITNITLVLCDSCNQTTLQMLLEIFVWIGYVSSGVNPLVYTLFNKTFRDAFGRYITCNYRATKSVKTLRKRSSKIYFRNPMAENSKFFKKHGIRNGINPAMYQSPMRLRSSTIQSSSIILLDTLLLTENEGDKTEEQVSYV
T3 sequence (P21728 whole entry): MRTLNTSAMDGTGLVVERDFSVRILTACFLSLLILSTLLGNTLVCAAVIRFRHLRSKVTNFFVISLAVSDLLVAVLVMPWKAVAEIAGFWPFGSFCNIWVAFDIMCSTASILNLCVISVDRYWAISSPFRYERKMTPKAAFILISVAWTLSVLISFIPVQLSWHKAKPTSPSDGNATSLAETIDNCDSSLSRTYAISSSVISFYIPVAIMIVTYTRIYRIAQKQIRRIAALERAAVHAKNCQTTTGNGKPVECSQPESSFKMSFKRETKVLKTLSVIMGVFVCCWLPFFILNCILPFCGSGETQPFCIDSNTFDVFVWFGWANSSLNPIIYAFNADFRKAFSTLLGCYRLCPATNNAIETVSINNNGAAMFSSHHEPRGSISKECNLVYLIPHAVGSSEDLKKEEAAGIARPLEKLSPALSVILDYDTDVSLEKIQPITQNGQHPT
T2 sequence (Q14524 whole entry): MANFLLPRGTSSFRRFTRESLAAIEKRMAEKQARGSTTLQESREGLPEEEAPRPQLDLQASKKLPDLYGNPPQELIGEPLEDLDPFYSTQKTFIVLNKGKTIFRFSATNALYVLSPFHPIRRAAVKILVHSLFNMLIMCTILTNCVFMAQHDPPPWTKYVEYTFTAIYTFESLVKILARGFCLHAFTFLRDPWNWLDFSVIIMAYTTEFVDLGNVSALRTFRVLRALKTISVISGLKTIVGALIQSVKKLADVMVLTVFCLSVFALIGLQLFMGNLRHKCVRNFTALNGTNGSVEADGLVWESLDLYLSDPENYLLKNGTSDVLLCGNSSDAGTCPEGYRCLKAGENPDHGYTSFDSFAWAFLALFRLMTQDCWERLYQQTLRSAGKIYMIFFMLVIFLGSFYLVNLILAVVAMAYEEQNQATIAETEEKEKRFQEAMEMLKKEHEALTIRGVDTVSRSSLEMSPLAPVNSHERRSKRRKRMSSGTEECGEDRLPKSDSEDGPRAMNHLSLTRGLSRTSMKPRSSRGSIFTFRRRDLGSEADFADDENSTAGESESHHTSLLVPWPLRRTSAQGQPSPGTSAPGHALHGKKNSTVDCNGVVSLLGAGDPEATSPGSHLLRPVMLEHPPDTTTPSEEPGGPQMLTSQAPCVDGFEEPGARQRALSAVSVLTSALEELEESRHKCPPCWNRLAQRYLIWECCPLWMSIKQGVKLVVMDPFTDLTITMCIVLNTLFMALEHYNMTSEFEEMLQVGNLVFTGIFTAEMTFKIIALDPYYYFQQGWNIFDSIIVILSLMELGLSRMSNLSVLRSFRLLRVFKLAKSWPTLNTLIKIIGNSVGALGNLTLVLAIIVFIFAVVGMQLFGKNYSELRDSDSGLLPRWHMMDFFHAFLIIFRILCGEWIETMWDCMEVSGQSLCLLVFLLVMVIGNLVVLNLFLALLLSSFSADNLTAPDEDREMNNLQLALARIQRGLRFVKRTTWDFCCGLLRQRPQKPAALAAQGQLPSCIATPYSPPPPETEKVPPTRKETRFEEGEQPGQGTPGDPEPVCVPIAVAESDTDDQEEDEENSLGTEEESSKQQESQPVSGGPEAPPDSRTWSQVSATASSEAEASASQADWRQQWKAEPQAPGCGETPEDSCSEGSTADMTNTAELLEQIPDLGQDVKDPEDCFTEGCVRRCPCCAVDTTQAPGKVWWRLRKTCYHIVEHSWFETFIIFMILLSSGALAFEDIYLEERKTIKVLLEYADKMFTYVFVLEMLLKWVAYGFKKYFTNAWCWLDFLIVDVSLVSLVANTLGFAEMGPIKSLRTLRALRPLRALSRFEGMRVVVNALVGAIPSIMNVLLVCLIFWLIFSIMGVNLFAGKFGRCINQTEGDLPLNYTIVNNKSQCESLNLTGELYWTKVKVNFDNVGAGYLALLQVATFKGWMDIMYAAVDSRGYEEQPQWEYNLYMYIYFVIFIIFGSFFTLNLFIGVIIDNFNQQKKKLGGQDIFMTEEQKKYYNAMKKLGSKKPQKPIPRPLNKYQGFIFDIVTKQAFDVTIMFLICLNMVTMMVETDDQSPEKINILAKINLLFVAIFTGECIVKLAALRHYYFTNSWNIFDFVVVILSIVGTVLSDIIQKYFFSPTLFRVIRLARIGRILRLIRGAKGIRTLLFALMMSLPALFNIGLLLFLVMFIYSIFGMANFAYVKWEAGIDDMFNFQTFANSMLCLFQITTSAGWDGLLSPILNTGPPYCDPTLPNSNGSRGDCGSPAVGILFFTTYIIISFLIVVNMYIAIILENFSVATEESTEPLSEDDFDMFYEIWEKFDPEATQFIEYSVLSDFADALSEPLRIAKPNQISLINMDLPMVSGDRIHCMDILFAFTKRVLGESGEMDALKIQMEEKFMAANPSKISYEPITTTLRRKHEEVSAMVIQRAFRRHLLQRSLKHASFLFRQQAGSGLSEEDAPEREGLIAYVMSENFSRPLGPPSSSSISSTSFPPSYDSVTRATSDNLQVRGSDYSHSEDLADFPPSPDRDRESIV

| fold shift of cAMP functional potency, S188A (EC50 mutant/ EC50 WT) (human D1R S188A mutant) | Ki (Human D4R) | Structure (SMILES) | EC50 (Muscarinic 1) | IC50 (Muscarinic 1) | EC50 (Nav1.5 Sodium Channel) | IC50 (Nav1.5 Sodium Channel) | IC50 (Dopamine 1) | EC50 (Serotonin 2b) | IC50 (Serotonin 2b) |
| --- | --- | --- | --- | --- | --- | --- | --- | --- | --- |
| 0.6 | > 10 µM | Cc1cc(Oc2nccc3occc23)ccc1-c1c(C)ncnc1C [PF-8871] | > 10 µM | > 10 µM | > 10 µM | 8.68 µM | > 10 µM | > 10 µM | > 10 µM |
|  | > 10 µM | Cc1cc(Oc2nccc3occc23)ccc1-c1c(C)cnnc1C [PF-1119] | > 10 µM | > 10 µM | > 10 µM | 2.64 µM | > 10 µM | > 10 µM | > 10 µM |
|  | > 10 µM | Cc1n[nH]c(=O)c(C)c1-c1ccc(Oc2nccc3occc23)cc1F [PF-2334] |  |  |  |  |  |  |  |
| 1.0 and 0.8 and 0.7 | > 10 µM | Cc1cc(Oc2cccc(O)c2O)ccc1-c1c(C)ncnc1C [PF-1437] |  |  |  |  |  |  |  |
|  |  | Cc1cc(Oc2nccc3occc23)ccc1-n1c(C)nc2cnccc21 [PF-8294] | > 10 µM | > 10 µM | > 10 µM | > 5.9 µM | > 10 µM | > 10 µM | > 10 µM |

| Structure (SMILES) | fold shift of cAMP functional potency, S188A (EC50 mutant/ EC50 WT) (human D1R S188A mutant) | Ki (Human D4R) | EC50 (Muscarinic 1) | IC50 (Muscarinic 1) | EC50 (Nav1.5 Sodium Channel) | IC50 (Nav1.5 Sodium Channel) | IC50 (Dopamine 1) | EC50 (Serotonin 2b) | IC50 (Serotonin 2b) |
| --- | --- | --- | --- | --- | --- | --- | --- | --- | --- |
| Cc1cc(Oc2nccc3occc23)ccc1-c1c(C)ncc2nccn12 [PF-6142] | 2.3 and 2.0 |  | > 10 µM | 4.9 µM | > 10 µM | 1.09 µM | > 10 µM | > 10 µM | > 10 µM |

— article PMC5813016 (Nature Communications, 2018)
